Measured values: ChEMBL document CHEMBL1201862, “PubChem BioAssay data set” (2004)
The source made the active and inactive calls. Cut-off read from the data, not from the text of the source, for most assays here: actives have a measured IC50 and inactives only a lower limit.

Assays:
[1] = target: T1, Tyrosine-protein phosphatase non-receptor type 7 (Homo sapiens, UniProt P35236); assay: inhibition of hematopoietic tyrosine phosphatase HePTP – biochemical, set 2, SAR follow-up (AID 449736); type: functional
T1 sequence (P35236 whole entry): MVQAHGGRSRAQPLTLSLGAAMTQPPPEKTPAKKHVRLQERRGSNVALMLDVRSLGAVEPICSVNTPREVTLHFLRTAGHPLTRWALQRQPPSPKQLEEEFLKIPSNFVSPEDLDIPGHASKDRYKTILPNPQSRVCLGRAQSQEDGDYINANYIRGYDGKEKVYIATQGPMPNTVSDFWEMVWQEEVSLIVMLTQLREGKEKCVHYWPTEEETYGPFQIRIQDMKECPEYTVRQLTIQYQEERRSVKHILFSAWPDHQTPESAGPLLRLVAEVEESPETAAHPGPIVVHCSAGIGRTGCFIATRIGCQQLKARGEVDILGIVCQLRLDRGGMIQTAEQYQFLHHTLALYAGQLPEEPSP

[2] = target: T2, Tyrosine-protein phosphatase non-receptor type 22 (Homo sapiens, UniProt Q9Y2R2); assay: PubChem AID 2140
T2 sequence (Q9Y2R2 whole entry): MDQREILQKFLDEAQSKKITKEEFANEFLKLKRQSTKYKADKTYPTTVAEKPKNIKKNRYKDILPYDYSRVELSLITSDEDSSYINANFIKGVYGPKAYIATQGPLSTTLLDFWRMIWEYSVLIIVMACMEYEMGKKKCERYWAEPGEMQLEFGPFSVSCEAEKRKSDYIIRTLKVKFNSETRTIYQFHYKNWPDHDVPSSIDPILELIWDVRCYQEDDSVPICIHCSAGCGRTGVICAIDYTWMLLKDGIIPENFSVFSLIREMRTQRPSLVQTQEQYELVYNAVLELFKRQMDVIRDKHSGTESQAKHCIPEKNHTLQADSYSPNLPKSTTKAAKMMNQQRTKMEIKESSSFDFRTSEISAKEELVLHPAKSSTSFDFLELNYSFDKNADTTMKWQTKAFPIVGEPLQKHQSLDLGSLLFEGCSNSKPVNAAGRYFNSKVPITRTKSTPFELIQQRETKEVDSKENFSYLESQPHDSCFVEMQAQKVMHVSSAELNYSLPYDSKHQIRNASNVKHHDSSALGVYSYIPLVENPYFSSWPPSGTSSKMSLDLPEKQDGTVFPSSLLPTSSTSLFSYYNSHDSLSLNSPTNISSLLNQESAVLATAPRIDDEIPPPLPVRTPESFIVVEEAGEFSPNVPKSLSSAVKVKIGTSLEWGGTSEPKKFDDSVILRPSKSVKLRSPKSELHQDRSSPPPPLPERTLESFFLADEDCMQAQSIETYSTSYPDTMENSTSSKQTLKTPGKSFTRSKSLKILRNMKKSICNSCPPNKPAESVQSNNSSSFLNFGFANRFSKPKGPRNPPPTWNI

[3] = target: Tyrosine-protein phosphatase non-receptor type 12 (Homo sapiens, UniProt Q05209); assay: SAR Selectivity Analysis of small molecule inhibitors of PEST using pCAP in a fluorescence assay. [Related pubchem assays (depositor defined):AID1779, AID1784, AID2135]; type: functional
Chain of Tyrosine-protein phosphatase non-receptor type 12 (Q05209 whole entry): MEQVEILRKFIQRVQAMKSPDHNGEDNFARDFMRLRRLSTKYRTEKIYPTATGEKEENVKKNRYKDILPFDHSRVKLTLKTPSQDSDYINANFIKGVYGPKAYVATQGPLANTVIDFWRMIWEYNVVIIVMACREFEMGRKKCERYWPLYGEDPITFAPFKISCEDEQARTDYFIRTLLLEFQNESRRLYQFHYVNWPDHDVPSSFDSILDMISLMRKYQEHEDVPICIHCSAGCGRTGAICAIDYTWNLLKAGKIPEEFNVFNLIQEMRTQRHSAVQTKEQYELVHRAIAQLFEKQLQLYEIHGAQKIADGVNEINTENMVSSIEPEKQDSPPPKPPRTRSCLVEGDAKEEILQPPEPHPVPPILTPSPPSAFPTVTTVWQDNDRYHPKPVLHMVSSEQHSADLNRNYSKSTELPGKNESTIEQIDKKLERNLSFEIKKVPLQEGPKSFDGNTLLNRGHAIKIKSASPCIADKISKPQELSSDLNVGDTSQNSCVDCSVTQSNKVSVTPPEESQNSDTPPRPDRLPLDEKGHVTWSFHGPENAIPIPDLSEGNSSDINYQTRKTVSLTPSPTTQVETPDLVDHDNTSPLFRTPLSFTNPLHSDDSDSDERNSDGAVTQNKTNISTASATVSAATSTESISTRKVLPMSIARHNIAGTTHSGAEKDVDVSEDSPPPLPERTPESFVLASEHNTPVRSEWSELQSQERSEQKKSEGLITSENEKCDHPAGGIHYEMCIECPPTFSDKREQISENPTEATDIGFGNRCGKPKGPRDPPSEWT

[4] = target: T2, Tyrosine-protein phosphatase non-receptor type 22; assay: PubChem AID 2135
[5] = target: T2, Tyrosine-protein phosphatase non-receptor type 22; assay: SAR LYP1 Fluorescent Assay using pCAP substrate for In Vitro dose response studies - Set 2. [Related pubchem assays (depositor defined):AID1779, AID1784, AID2135, AID449727]; type: functional
[6] = target: T2, Tyrosine-protein phosphatase non-receptor type 22; assay: SAR LYP1 Fluorescent Assay using OMFP substrate for In Vitro dose response studies - Set 3. [Related pubchem assays (depositor defined):AID1779, AID1784, AID2140, AID2686]; type: functional
[7] = target: T2, Tyrosine-protein phosphatase non-receptor type 22; assay: SAR LYP1 Fluorescent Assay using OMFP substrate for In Vitro dose response studies - Set 2. [Related pubchem assays (depositor defined):AID1779, AID1784, AID2140, AID449726, AID488869]; type: functional
[8] = target: T2, Tyrosine-protein phosphatase non-receptor type 22; assay: inhibition of lymphoid tyrosine phosphatase LYP – biochemical, pCAP fluorogenic substrate, fluorescence, set 3, SAR follow-up (AID 449727); type: functional
[9] = target: T3, Rac GTPase-activating protein 1 (Homo sapiens, UniProt Q9H0H5); assay: blockers of MgcRacGAP-driven Rac1 GTP hydrolysis – biochemical, ADP Hunter fluorescence, primary and confirmatory, confirmation (AID 624330); type: functional
T3 sequence (Q9H0H5 whole entry): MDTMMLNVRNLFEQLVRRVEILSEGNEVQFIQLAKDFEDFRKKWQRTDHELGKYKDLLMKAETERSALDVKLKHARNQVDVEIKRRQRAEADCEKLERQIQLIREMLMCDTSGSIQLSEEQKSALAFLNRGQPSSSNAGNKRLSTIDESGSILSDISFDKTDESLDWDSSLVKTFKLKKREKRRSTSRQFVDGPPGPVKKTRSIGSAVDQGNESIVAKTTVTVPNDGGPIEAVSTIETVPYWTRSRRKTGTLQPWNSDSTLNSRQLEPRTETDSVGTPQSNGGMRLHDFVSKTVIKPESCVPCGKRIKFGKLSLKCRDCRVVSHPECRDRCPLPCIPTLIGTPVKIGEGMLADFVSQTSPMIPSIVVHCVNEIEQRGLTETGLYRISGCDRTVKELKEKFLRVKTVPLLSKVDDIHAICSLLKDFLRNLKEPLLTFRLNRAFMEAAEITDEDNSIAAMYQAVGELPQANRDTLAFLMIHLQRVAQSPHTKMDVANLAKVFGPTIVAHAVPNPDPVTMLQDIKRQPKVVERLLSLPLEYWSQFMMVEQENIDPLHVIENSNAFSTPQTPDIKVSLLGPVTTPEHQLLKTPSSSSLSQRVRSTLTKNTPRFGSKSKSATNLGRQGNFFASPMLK

Genome polyprotein = Genome polyprotein (dengue virus type 2, UniProt P29990); assay: flavivirus cap methylation enzyme inhibition – biochemical, confirmation dose response, primary screen (AID 588689); type: functional
Chain of Genome polyprotein (P29990 2492-3391 limits assumed): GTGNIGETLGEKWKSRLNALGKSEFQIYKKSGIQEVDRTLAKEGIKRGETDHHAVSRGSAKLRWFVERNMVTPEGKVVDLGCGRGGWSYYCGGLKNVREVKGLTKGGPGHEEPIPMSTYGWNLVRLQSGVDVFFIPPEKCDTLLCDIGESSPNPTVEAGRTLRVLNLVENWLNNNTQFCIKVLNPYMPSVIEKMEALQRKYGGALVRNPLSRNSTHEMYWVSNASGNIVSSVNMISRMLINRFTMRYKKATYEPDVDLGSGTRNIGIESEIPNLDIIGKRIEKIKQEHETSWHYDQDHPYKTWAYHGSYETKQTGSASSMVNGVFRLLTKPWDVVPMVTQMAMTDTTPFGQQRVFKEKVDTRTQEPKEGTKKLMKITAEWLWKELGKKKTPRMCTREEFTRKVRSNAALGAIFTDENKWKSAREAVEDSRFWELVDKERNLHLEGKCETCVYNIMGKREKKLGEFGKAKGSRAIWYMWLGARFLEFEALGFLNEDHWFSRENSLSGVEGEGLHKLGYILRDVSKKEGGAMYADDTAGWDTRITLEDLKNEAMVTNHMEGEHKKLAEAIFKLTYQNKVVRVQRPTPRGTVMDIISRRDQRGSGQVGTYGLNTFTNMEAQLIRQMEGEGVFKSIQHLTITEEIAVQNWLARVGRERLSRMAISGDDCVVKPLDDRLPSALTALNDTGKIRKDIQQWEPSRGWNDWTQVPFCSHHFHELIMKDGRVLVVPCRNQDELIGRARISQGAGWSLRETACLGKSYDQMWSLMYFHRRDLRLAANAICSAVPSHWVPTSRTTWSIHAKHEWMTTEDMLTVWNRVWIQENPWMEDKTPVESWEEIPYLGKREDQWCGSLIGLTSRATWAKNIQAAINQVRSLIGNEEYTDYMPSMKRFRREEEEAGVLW

[10] = target: Envelope glycoprotein gp160 (Human immunodeficiency virus 1, UniProt Q6QLK5); assay: cell-free HIV fusion peptide-binding blockers – biochemical, uHTS, fluorescence dequenching, […] (AID 1986)
Chain of Envelope glycoprotein gp160 (Q6QLK5 whole entry, the tested form may be a part): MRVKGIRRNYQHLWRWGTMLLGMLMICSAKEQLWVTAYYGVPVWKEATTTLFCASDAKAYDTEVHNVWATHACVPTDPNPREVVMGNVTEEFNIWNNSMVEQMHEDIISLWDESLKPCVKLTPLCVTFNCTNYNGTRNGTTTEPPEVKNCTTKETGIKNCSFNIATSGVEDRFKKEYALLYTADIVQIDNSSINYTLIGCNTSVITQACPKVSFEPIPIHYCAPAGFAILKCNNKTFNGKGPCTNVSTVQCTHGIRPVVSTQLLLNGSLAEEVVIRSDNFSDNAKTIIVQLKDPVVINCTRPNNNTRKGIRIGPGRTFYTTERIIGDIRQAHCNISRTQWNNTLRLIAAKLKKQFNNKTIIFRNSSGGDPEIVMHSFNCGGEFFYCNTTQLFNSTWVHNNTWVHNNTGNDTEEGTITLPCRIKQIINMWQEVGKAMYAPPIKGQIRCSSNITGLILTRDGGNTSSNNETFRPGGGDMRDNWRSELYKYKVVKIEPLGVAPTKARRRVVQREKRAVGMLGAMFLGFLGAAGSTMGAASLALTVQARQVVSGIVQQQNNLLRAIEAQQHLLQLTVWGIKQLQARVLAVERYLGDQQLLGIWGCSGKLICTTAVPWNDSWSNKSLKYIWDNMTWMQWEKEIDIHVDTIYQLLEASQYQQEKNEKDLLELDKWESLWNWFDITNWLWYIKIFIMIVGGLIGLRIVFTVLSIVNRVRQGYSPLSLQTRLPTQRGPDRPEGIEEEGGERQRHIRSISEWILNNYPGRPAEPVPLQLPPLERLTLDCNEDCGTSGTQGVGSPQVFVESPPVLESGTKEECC

[11] = target: T4, Type-1 angiotensin II receptor (Homo sapiens, UniProt P30556); assay: agonist activity at AGTR1 – cell-based, uHTS hits, selectivity assay for APJ receptor agonist project, dose response (AID 488865); type: functional;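 note: beta-arrestin recruitment to AT1 measured by enzyme fragment complementation luminescence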
T4 sequence (P30556 whole entry): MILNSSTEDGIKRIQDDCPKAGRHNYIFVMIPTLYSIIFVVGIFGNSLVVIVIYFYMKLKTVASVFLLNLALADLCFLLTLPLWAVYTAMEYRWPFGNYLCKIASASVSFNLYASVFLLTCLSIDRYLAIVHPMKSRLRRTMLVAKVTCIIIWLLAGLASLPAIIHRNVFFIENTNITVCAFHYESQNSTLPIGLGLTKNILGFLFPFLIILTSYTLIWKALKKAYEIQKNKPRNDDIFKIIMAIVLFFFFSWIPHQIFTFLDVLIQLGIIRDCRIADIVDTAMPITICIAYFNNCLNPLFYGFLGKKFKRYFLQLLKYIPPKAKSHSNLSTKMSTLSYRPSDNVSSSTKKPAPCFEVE

Mu-type opioid receptor = Mu-type opioid receptor (Homo sapiens, UniProt P35372); assay: SAR Analysis of Antagonists of the MOR Receptor using an Image-Based Assay - Set 3. [Related pubchem assays (depositor defined):AID1777, AID1785, AID1786, AID1966, AID2133, AID2136, AID2284, AID2285, AID2420]; type: functional
Chain of Mu-type opioid receptor (P35372 whole entry): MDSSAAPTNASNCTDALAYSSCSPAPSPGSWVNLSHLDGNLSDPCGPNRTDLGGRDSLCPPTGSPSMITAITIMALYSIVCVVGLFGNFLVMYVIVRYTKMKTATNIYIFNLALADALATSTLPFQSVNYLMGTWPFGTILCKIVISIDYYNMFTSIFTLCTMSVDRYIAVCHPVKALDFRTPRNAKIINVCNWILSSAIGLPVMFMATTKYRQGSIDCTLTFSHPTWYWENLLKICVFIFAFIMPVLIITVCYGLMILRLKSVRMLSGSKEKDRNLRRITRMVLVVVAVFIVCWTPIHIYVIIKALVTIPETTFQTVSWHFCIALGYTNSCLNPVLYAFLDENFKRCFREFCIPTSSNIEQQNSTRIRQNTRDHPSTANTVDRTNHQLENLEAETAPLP

[12] = target: Delta-type opioid receptor (Homo sapiens, UniProt P41143); assay: SAR Analysis of Antagonists of the DOR Receptor using an Image-Based Assay - Set 3. [Related pubchem assays (depositor defined):AID1777, AID1785]; type: functional;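 note: U2OS cells expressing DOR1 and beta-arrestin GFP stimulated with 100 nM SNC80; imaging of GFP-tagged beta-arrestin moving into spots after receptor activation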
Chain of Delta-type opioid receptor (P41143 whole entry): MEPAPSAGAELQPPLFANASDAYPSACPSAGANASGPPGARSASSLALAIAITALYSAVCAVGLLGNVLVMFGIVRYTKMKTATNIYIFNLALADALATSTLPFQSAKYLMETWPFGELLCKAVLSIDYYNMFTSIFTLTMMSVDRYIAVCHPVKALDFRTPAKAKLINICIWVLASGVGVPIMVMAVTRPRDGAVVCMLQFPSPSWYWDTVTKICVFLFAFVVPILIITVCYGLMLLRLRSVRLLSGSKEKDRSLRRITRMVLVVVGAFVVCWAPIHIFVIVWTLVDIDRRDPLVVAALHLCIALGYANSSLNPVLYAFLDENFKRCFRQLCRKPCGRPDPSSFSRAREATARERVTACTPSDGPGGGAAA

[13] = target: T5, Kappa-type opioid receptor (Homo sapiens, UniProt P41145); assay: SAR analysis of Antagonists of the Kappa Opioid Receptor (KOR) using an Image-Based Assay - Set 3. [Related pubchem assays (depositor defined):AID1777, AID1785]; type: functional
T5 sequence (P41145 whole entry): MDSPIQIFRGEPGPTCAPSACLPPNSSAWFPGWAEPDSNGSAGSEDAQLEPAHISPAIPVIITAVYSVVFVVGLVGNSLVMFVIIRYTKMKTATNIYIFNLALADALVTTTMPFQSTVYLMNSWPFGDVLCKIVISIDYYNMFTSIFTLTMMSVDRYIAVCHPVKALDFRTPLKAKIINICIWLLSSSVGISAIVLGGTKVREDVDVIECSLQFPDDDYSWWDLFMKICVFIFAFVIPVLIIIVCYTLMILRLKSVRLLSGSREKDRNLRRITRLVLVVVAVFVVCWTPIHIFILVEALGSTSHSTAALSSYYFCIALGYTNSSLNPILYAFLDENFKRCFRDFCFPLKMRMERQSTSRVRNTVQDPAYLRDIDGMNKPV

[14] = target: T5, Kappa-type opioid receptor; assay: SAR analysis of small molecule antagonists of the kappa opioid receptor via a luminescent beta-arrestin assay - Set 3. [Related pubchem assays (depositor defined):AID1777, AID1778, AID1785, AID1786, AID1966, AID2133, AID2136, AID2285, AID2495]; type: functional
[15] = target: T1, Tyrosine-protein phosphatase non-receptor type 7; assay: redox-active compounds inhibiting HePTP phosphatase – biochemical, fluorescence, mechanism study (AID 2068); type: functional
[16] = target: T6, Dual specificity protein phosphatase 6 (Rattus norvegicus, UniProt Q64346); type: functional;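 note: confirmatory in vitro dose-response testing of MKP-3 inhibition; recombinant His-tagged MKP-3 made in E. coli BL21 with OMFP substrate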
T6 sequence (Q64346 whole entry): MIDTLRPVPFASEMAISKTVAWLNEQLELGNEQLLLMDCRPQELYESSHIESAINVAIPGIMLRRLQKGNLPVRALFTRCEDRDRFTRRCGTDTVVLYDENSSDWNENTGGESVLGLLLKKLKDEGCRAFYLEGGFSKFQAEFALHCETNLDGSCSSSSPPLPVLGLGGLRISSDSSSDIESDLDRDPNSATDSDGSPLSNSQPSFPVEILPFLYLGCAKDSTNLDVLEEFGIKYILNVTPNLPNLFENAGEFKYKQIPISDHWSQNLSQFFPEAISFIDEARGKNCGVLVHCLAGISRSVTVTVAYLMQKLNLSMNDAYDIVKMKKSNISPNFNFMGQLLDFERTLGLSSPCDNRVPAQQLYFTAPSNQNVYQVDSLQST

[17] = target: T7, Dual specificity protein phosphatase 3 (Homo sapiens, UniProt P51452); assay: SAR VHR1 Fluorescent Assay for In Vitro dose response studies. [Related pubchem assays (depositor defined):AID1654, AID1661, AID1878, AID1992, AID2004, AID2070, AID2085]; type: functional
T7 sequence (P51452 whole entry): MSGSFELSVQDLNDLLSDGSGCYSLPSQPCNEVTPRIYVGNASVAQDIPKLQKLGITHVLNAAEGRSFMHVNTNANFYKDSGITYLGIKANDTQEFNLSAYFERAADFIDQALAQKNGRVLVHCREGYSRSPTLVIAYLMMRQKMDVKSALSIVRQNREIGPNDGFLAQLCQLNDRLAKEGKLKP

[18] = target: T7, Dual specificity protein phosphatase 3; assay: SAR VHR1 absorbance Assay for In Vitro dose response studies. [Related pubchem assays (depositor defined):AID1654, AID1661, AID1878, AID1992, AID2004]

COC(=O)c1ccc(COc2ccc3cc(-c4ccc(F)cc4)c(=O)oc3c2)cc1
IC50 [1]: 40 µM (active) | IC50 [2]: > 100 µM (inactive) | IC50 [3]: > 100 µM (inactive) | IC50 [4]: > 100 µM (inactive) | IC50 [5]: > 100 µM (inactive) | IC50 [6]: > 100 µM (inactive) | IC50 [7]: > 100 µM (inactive) | IC50 [8]: > 100 µM (inactive)

CN1C(=O)/C(=C/c2ccc(C(=O)Nc3ccc(O)cc3C(=O)O)cc2)SC1=S
IC50 [9]: 55.1 µM (active) | IC50 (Genome polyprotein): 31.8 µM (active) | IC50 [10]: 11.3 µM (active)

CC1CCN(S(=O)(=O)c2ccc3nc(N4CCN(c5ccccc5)CC4)ccc3c2)CC1
EC50 [11]: > 100 µM (inactive)

CCc1ccc(S(=O)(=O)NCc2ccc(C(=O)NCCN(Cc3ccc(Br)cc3)C(C)C)cc2)cc1
IC50 (Mu-type opioid receptor): > 32 µM (inactive) | IC50 [12]: > 32 µM (inactive) | IC50 [13]: 0.523 µM (active) | IC50 [14]: 0.82 µM (active)

Fc1ccc(OCCn2cc(C(=S)N3CCCCC3)c3ccccc32)cc1
IC50 [15]: 47.2 µM (active) | IC50 [16]: > 99 µM (inactive) | IC50 [17]: > 99 µM (inactive) | IC50 [18]: > 100 µM (inactive)
